Data: ChEMBL document CHEMBL4257578, “6'-Fluoro-3-deazaneplanocin: Synthesis and antiviral properties, including Ebola” (Bioorg Med Chem Lett, 2018)
The source made the active and inactive calls. The calls are words filed in the database; no cut-off is given here.

Experiments:
Yellow fever virus = test: Antiviral activity against Yellow fever virus infected in African green monkey Vero cells; assay type: functional, organism-based
West Nile virus = test: Antiviral activity against West Nile virus infected in African green monkey Vero 76 cells; assay type: functional, organism-based
Hepatitis B virus = test: Antiviral activity against Hepatitis B virus infected in human HepG2.2.15 cells; assay type: functional, organism-based
Tacaribe virus = test: Antiviral activity against Tacaribe virus infected in African green monkey Vero cells; assay type: functional, organism-based; details: Mammarenavirus tacaribeense
Pichinde virus = test: Antiviral activity against Pichinde virus infected in African green monkey Vero; assay type: functional, organism-based
Norovirus = test: Antiviral activity against Norovirus infected in human HG23 cells; assay type: functional, organism-based
[1] = tested on: Venezuelan equine encephalitis virus; test: Antiviral activity against Venezuelan equine encephalitis virus infected in African green monkey Vero 76 cells; assay type: functional, organism-based
Rift Valley fever virus = test: Antiviral activity against Rift Valley fever virus infected in African green monkey Vero 76 cells; assay type: functional, organism-based
Human betaherpesvirus 5 = test: Antiviral activity against Human cytomegalovirus infected in human HFF cells; assay type: functional, organism-based
[2] = Selectivity index, ratio of CC50 for African green monkey Vero cells to EC50 for Pichinde virus; assay type: toxicity; details: read-out: Ratio CC50/EC50
Human adenovirus 5 = test: Antiviral activity against Human adenovirus 5 infected in human A549 cells; assay type: functional, organism-based
[3] = Selectivity index, ratio of CC50 for African green monkey Vero 76 cells to EC50 for measles virus; assay type: toxicity; details: read-out: Ratio CC50/EC50
[4] = tested on: Japanese encephalitis virus; test: Antiviral activity against Japanese […] encephalitis virus infected in African green monkey Vero 76 cells; assay type: functional, organism-based
Ebolavirus [5] = test: Antiviral activity against Ebolavirus infected in African green monkey Vero cells; assay type: functional, cell-based; details: Orthoebolavirus
[6] = Cytotoxicity against MDCK cells assessed as reduction in cell viability; assay type: cell-based, Canis lupus familiaris; details: dog
Usutu virus = test: Antiviral activity against Usutu virus infected in African green monkey Vero 76 cells; assay type: functional, organism-based
[7] = Cytotoxicity against African green monkey Vero 76 cells assessed as reduction in cell viability; assay type: cell-based; details: chlorocebus sabaeus
dengue virus type 2 = test: Antiviral activity against Dengue virus 2 infected in African green monkey Vero 76 cells; assay type: functional, organism-based
[8] = Cytotoxicity against African green monkey Vero cells assessed as reduction in cell viability; assay type: cell-based; details: chlorocebus sabaeus
Poliovirus 1 = test: Antiviral activity against Human poliovirus 1 infected in African green monkey Vero 76 cells; assay type: functional, organism-based
Measles morbillivirus = test: Antiviral activity against Measles virus infected in African green monkey Vero 76 cells; assay type: functional, organism-based
[9] = biological target: AdoHcyase_NAD domain-containing protein (Oryctolagus cuniculus, UniProt G1SVH0); test: Inhibition of SAHase from rabbit erythrocytes using S-adenosyl-L-homocysteine as substrate preincubated for 5 mins followed by substrate addition and measured after 1 hr by Measure-iTTM thiol quantitation reagent based assay
Chikungunya virus = test: Antiviral activity against Chikungunya virus infected in African green monkey Vero 76 cells; assay type: functional, organism-based
Punta Toro virus = test: Antiviral activity against Punta Toro virus infected in African green monkey Vero 76 cells; assay type: functional, organism-based
[10] = Selectivity index, ratio of CC50 for African green monkey Vero cells to EC50 for Ebolavirus; assay type: toxicity; details: read-out: Ratio CC50/EC50
Influenza A virus = test: Antiviral activity against Influenza A virus (H1N1) infected in MDCK cells; assay type: functional, organism-based
[11] = Selectivity index, ratio of CC50 for MDCK cells to EC50 for Influenza A virus (H1N1); assay type: toxicity; details: dog, read-out: Ratio CC50/EC50
Ebolavirus [12] = test: Antiviral activity against Ebolavirus subtype Zaire infected in African green monkey Vero E6 cells; assay type: functional, Ebola virus - Zaire (1995); details: Orthoebolavirus, Vero C1008
[13] = Cytotoxicity against African green monkey Vero E6 cells assessed as reduction in cell viability; assay type: cell-based; details: chlorocebus sabaeus, Vero E6 cells (Vero C1008)
[14] = Selectivity index, ratio of CC50 for African green monkey Vero E6 cells to EC50 for Ebolavirus subtype Zaire; assay type: toxicity, Vero C1008; details: read-out: Ratio CC50/EC50

Chain of AdoHcyase_NAD domain-containing protein (G1SVH0 whole entry, the tested form may be a part): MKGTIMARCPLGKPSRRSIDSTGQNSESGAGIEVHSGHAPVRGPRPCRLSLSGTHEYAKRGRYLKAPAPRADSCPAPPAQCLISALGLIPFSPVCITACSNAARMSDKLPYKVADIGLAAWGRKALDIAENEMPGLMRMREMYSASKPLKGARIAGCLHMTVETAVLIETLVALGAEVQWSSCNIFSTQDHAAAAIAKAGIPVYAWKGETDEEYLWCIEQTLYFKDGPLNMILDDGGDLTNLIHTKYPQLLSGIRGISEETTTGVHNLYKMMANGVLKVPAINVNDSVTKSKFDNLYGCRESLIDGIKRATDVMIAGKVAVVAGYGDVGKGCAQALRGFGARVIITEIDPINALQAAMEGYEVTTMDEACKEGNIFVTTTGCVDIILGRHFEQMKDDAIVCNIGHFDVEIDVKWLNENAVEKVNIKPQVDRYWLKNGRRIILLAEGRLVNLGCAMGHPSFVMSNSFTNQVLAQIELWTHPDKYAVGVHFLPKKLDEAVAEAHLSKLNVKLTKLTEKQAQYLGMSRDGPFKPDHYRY

Nc1cccc2c1ncn2[C@@H]1C(F)=C(CO)[C@@H](O)[C@H]1O
Activity (Yellow fever virus): inactive | Activity (West Nile virus): inactive | Activity (Hepatitis B virus): inactive | Activity (Tacaribe virus): inactive | EC50 (Pichinde virus): 57.6 µM | Activity (Norovirus): inactive | Activity [1]: inactive | Activity (Rift Valley fever virus): inactive | Activity (Human betaherpesvirus 5): inactive | selectivity ratio [2]: > 6.3 | Activity (Human adenovirus 5): inactive | selectivity ratio [3]: > 320 | Activity [4]: inactive | EC50 (Ebolavirus [5]): < 360 nM | CC50 [6]: 133 µM | Activity (Usutu virus): inactive | CC50 [7]: 115 µM | Activity (dengue virus type 2): inactive | CC50 [8]: 125 to 360 µM | Activity (Poliovirus 1): inactive | EC50 (Measles morbillivirus): < 360 nM | IC50 [9]: 8.69 nM | Activity (Chikungunya virus): inactive | Activity (Punta Toro virus): inactive | selectivity ratio [10]: > 347 | EC50 (Influenza A virus): 20.2 µM | selectivity ratio [11]: 6.6

Nc1cccc2c1ncn2[C@@H]1C=C(CO)[C@@H](O)[C@H]1O
EC50 (Ebolavirus [12]): 2 µM | CC50 [13]: > 1700 µM | selectivity ratio [14]: > 850

Nc1ccnc2c1ncn2[C@@H]1C=C(CO)[C@@H](O)[C@H]1O
EC50 (Ebolavirus [12]): 4 µM | CC50 [13]: 60 µM | selectivity ratio [14]: 15
